Experimental data reported in ChEMBL document CHEMBL1123349, “Analogues of 1,3-dipropyl-8-phenylxanthine: enhancement of selectivity at A1-adenosine receptors by aryl substituents” (J Med Chem, 1986).
pKi: −log10 of the molar value. Values joined by “and” are separate entries in the source; they are usually repeats but may differ in a detail not shown here. Equal values may be shown once.

Experiments:
Adenosine A2 receptor = Adenosine A2 receptor (Rattus norvegicus, UniProt P29276+P30543); test: Binding affinity against A2 adenosine receptors of the central nervous system; type: protein assay
[1] = target: Adenosine receptors; A1 & A2 (Rattus norvegicus) (UniProt P29276+P25099+P30543); test: Selectivity ratio was expressed as the ratio of binding affinity towards Adenosine A2 receptor to that of Adenosine A1 receptor in rat
Adenosine receptor A1 = target: T1, Adenosine receptor A1 (Rattus norvegicus, UniProt P25099); test: Binding affinity against A1 adenosine receptors of the central nervous system
T1 sequence (P25099 whole entry): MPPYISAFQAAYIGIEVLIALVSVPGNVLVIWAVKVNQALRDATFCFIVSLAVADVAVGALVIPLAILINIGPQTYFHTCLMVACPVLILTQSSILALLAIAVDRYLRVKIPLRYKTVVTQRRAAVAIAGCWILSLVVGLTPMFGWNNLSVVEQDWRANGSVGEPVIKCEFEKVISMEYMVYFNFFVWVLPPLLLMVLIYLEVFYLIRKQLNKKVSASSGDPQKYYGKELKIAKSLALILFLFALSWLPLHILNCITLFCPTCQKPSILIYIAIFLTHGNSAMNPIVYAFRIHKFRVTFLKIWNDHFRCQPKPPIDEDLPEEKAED

Compound	Ki (Adenosine A2 receptor)	Ratio [1]	pKi (Adenosine receptor A1)
CCCn1c(=O)c2nc(-c3ccc(O)c(Cl)c3)[nH]c2n(CCC)c1=O	140 nM	3.9	–
CCCn1c(=O)c2[nH]c(-c3ccc(F)cc3F)nc2n(CCC)c1=O	–	–	7.29
CCCn1c(=O)c2nc(-c3cc(O)ccc3O)[nH]c2n(CCC)c1=O	3500 nM	9.7	6.44
CCCn1c(=O)c2[nH]c(-c3ccc(O)cc3O)nc2n(CCC)c1=O	–	–	7.82
CCCn1c(=O)c2nc(-c3ccc(OC)cc3)[nH]c2n(CCC)c1=O	–	–	7.85
CCCn1c(=O)c2[nH]c(-c3ccc(OC)cc3O)nc2n(CCC)c1=O	980 nM	89	7.96
CCCn1c(=O)c2nc(-c3ccc(N(C)C)cc3)[nH]c2n(CCC)c1=O	100 nM	2.2	7.35
CCCn1c(=O)c2nc(-c3ccc(OC(C)=O)cc3)[nH]c2n(CCC)c1=O	12 nM	1.5	8.10
CCCn1c(=O)c2nc(-c3ccc(S(N)(=O)=O)cc3)[nH]c2n(CCC)c1=O	115 nM	15	8.07
CCCn1c(=O)c2nc(-c3ccc(N)cc3)[nH]c2n(CCC)c1=O	28 nM	1	7.57
CCCn1c(=O)c2nc(-c3ccc(Cl)cc3N)[nH]c2n(CCC)c1=O	1000 nM	400	–
CCCn1c(=O)c2[nH]c(-c3ccc(O)c(Cl)c3)nc2n(CCC)c1=O	–	–	7.44
CCCn1c(=O)c2nc(-c3ccc(S(=O)(=O)O)cc3)[nH]c2n(CCC)c1=O	710 nM	3.4	–
CCCn1c(=O)c2nc(-c3ccc(Cl)cc3OC)[nH]c2n(CCC)c1=O	> 3000 nM	> 7	6.38
CCCn1c(=O)c2nc(-c3cccc(O)c3O)[nH]c2n(CCC)c1=O	210 nM	6.4	7.48
CCCn1c(=O)c2nc(-c3ccc(F)cc3F)[nH]c2n(CCC)c1=O	290 nM	5.9	–
CCCn1c(=O)c2nc(-c3ccc(C(N)=O)cc3)[nH]c2n(CCC)c1=O	72 nM and 55 nM	–	8.15 and 7.60
CCCn1c(=O)c2nc(-c3ccc(N)cc3N)[nH]c2n(CCC)c1=O	13 nM	2.8	8.34
